Values of other authors in US20070298008A1, “Method of bowel cleansing” (Braintree Laboratories, Inc., priority 2002, published 2007).
Read-outs that look alike come from different tables or passages of the source.

Test system: intestines and rectum

CC(=O)Oc1ccc(C(c2ccc(OC(C)=O)cc2)c2ccccn2)cc1 [Bisacodyl]
Time to produce a bowel movement (enema): about 20 minutes | Time to produce a bowel movement (suppository): about an hour
